The test concerns MiaPaCa-2. The experiment in a line: cells. As to conditions: Homo sapiens, MIA PaCa-2, 72 h, read-out: EC50 [nM]. More on the design: ATPlite luminescence viability of PDAC cell lines, 11-dose single-agent curves, 4-parameter fit. The method, boiled down: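 cells (1000 to 5000 per well) seeded 24 h before drug addition in a combination screen at 0.2% final DMSO. Controls were drug-free wells (negative) and 5 µM staurosporine (positive).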

As usually defined, the EC50 is the concentration at which the effect is half-maximal.

Structures are written as SMILES.

For the compound `CCN1CCN(Cc2ccc(Nc3ncc(F)c(-c4cc(F)c5nc(C)n(C(C)C)c5c4)n3)nc2)CC1` [Abemaciclib], the EC50 is 82.2 nM.

Source of the values: PMC11876601 (Molecular Systems Biology, 2025).
